Measurements published in PMC10180490, “New Indazol-Pyrimidine-Based Derivatives as Selective Anticancer Agents: Design, Synthesis, and In Silico Studies” (Molecules, 2023).

Tests used:
lung cancer cells (A549) = assay: MTT cytotoxicity assay, A549; type: cell-based, human
Description: (§1) All of the synthesized compounds were screened for their cytotoxic effect against three different human cancer cells, namely breast cancer cells (MCF-7), lung cancer cells (A549), and colorectal adenocarcinoma cells (Caco2), using the MTT cytotoxic assay. […] Then, 3-[4,5-dimethylthiazol-2-yl]-2,5-diphenyl tetrazolium bromide (MTT) was added.

[1] = tested on: breast cancer cells (MCF-7); assay: MTT cytotoxicity assay, MCF-7; type: cell-based; details: Homo sapiens, MCF7, MCF-7 cells, 48 h
Description: as §1

[2] = tested on: mammary gland epithelial cell line MCF-10a; assay: Cytotoxicity toward normal cells MCF-10a; type: cell-based, human; details: for SI (selectivity index): MCF-10a IC50 relative to MCF-7 IC50
[3] = Cytotoxicity toward normal cells MCF-10a; type: cell-based, human; details: human, MCF-10a mammary gland epithelial cells (normal), MCF-10a normal cell line
[4] = tested on: caspase-3/7 in MCF-7 cells; assay: Caspase-3/7 Green flow cytometry assay; type: cell-based, human; details: untreated controls 0.43%
Description: Caspases are essential factors in apoptotic cell death since they play a key role in maintaining homeostasis, and their activation induces apoptosis.
Caspase-3/7 activity was calculated using Caspase-3/7 Green Flow Cytometry Assay Kit Catalog # C10427.

MCF-7 cells [5] = assay: Cell cycle analysis by DNA flow cytometry; type: cell-based, human; details: MCF-7, 24 h; for increase in the percentage of cells in the G0-G1 phase: compared with the control (53.89%)
Description: An encouraging strategy for cancer therapy is targeting the cell cycle, according to the reported method. In this study, compounds 4i and 4f were tested—using a DNA flow cytometry assay—for their effects on the cell cycle of MCF-7 cells (Figure 2). […] Simultaneously, there was a significant reduction in the percentage of the cell population in the G2/M phase—32% and 46% for cells treated with compound 4f or 4i, respectively, compared with controls. The decline in the proportion of cells in the G2/M phase as well as the increase in the cell population in the G0-G1 and S phases indicate a reduction in cell cycle progression in MCF-7 cells.

MCF-7 cells [6] = assay: Annexin-V/PI apoptosis assay; type: cell-based, human; details: MCF-7, 24 h; for Annexin V/PI quadrant, remaining (necrosis): Figure 3, quadrant not given, assigned by elimination; for average increment at the early phase of apoptosis / average increment in late-stage apoptosis: average for the treated groups; for percentage of Annexin V/PI-stained cells: both early and late phases of apoptosis, untreated 1.76%
Description: To assess the apoptotic potential, MCF-7 cells were treated with compound 4i or 4f for 24 h and then assayed for Annexin-V/PI (propidium iodide) binding according to the reported protocol. […] At the early phase of apoptosis, the average increment for the treated groups was around 27%, while it was around 14% in late-stage apoptosis.
Apoptosis was measured using an Annexin V-FITC Apoptosis Detection Kit and analyzed using FACSCalibur flow cytometer.

[7] = tested on: colorectal adenocarcinoma cells (Caco2); assay: MTT cytotoxicity assay, Caco2; type: cell-based; details: Homo sapiens, Caco-2, 48 h
Description: as §1

Row | melting point [°C] | Structure (SMILES) | IC50 (lung cancer cells (A549); Homo sapiens, A549, 48 h) [µM] | IC50 [1] [µM] | SI (selectivity index) [2] | IC50 ([2]; MCF-10a normal cell line) [µM] | IC50 [3] [µM] | levels of active caspase-3/7 expression [4] [%] | increase in the percentage of the cell population in the S phase (MCF-7 cells [5]; compared with control) [%] | increase in the percentage of cells in the G0-G1 phase (MCF-7 cells [5]) | Annexin V/PI quadrant, remaining (necrosis) (MCF-7 cells [6]) [%] | average increment at the early phase of apoptosis (MCF-7 cells [6]) | average increment in late-stage apoptosis (MCF-7 cells [6]) | percentage of Annexin V/PI-stained cells (MCF-7 cells [6]) | IC50 [7] [µM] | reduction in the percentage of the cell population in the G2/M phase (MCF-7 cells [5]; compared with controls) [%] | IC50 (lung cancer cells (A549); 48 h) [µM]
1 | – | COc1cc(Nc2nccc(Nc3ccc4[nH]ncc4c3)n2)cc(OC)c1OC [Compound 4i, N4-(1H-indazol-5-yl)-N2-(3,4,5-trimethoxyphenyl) pyrimidine-2,4-diamine] | 2.31 ± 0.13 | 1.84 ± 0.09 | 16.03 | 29.5 ± 1.46 | 29.5 | 26.5 | 3 | around 7% | 5.92 | around 27% | around 14% | about 47% | 4.99 ± 0.25 | – | –
2 | – | NS(=O)(=O)c1ccc(Nc2nccc(Nc3ccc4[nH]ncc4c3)n2)cc1 [Compound 4g, 4-((4-((1H-indazol-5-yl)amino)pyrimidin-2-yl)amino) benzenesulfonamide] | 11.2 ± 0.62 | 4.68 ± 0.22 | – | – | – | – | – | – | – | – | – | – | 6.91 ± 0.34 | – | –
3 | 303 to 305 | NS(=O)(=O)c1ccc(Nc2ncc(F)c(Nc3ccc4[nH]ncc4c3)n2)cc1 [Compound 4e, 4-((4-((1H-indazol-5-yl)amino)-5-fluoropyrimidin-2-yl)amino)benzenesulfonamide] | 46.6 ± 2.57 | 25.1 ± 1.2 | – | – | – | – | – | – | – | – | – | – | 7.17 ± 0.36 | – | –
4 | 286 to 288 | NS(=O)(=O)c1cccc(Nc2ncc(F)c(Nc3ccc4[nH]ncc4c3)n2)c1 [Compound 4d, 3-((4-((1H-indazol-5-yl)amino)-5-fluoropyrimidin-2-yl)amino)benzenesulfonamide] | 13.5 ± 0.74 | 4.8 ± 0.23 | – | – | – | – | – | – | – | – | – | – | 9.63 ± 0.48 | – | –
5 | – | Fc1cnc(Nc2ccc(N3CCOCC3)cc2)nc1Nc1ccc2[nH]ncc2c1 [Compound 4f, 5-fluoro-N4-(1H-indazol-5-yl)-N2-(4-morpholinophenyl) pyrimidine-2,4-diamine] | 12.8 ± 0.71 | 1.63 ± 0.08 | 14.5 | – | 23.7 ± 1.17 | 19 | – | around 7% | 3.23 | around 27% | around 14% | about 47% | 22.3 ± 1.11 | 32 | –
6 | 343 to 345 | O=S(=O)(Nc1ncccn1)c1ccc(Nc2ncc(F)c(Nc3ccc4[nH]ncc4c3)n2)cc1 [Compound 4a, 4-((4-((1H-indazol-5-yl)amino)-5-fluoropyrimidin-2-yl)amino)-N-(pyrimidin-2-yl)benzenesulfonamide] | 3.3 | 2.96 ± 0.14 | – | – | – | – | – | – | – | – | – | – | 10.3 ± 0.51 | – | 3.2 ± 0.18
7 | 352 to 354 | COc1cc(Nc2ncc(F)c(Nc3ccc4[nH]ncc4c3)n2)cc(OC)c1OC [Compound 4c, 5-fluoro-N4-(1H-indazol-5-yl)-N2-(3,4,5-trimethoxyphenyl)pyrimidine-2,4-diamine] | 58.8 ± 3.25 | 29.1 ± 1.4 | – | – | – | – | – | – | – | – | – | – | 67.8 ± 3.36 | – | –
8 | 285 to 287 | O=S(=O)(Nc1nccs1)c1ccc(Nc2ncc(F)c(Nc3ccc4[nH]ncc4c3)n2)cc1 [Compound 4b, 4-((4-((1H-indazol-5-yl)amino)-5-fluoropyrimidin-2-yl)amino)-N-(thiazol-2-yl)benzenesulfonamide] | 52.9 ± 2.92 | 14.3 ± 0.68 | – | – | – | – | – | – | – | – | – | – | 31.2 ± 1.55 | – | –
9 | 211 to 213 | O=S(=O)(Nc1nccs1)c1ccc(Nc2nccc(Nc3ccc4[nH]ncc4c3)n2)cc1 [Compound 4h, 4-((4-((1H-indazol-5-yl)amino)pyrimidin-2-yl)amino)-N-(thiazol-2-yl)benzenesulfonamide] | 23.5 ± 1.3 | 21.1 ± 1.01 | – | – | – | – | – | – | – | – | – | – | 17.3 ± 0.86 | – | –
